From PMC3236808 (2011) come the findings set out here.

Structures are written as SMILES.

A word on the IC50: it is the concentration at which inhibition is half-maximal. Low values mean higher potency, high ones lower potency.

The assay addresses PRMT1 (Rattus norvegicus, UniProt Q63009). Nature of the assay: scintillation proximity assay of 3H-SAM methylation of biotinylated H4 peptide. The class given is biochemical. On the technique in general: Scintillation proximity formats need no separation of bound from free tracer.

PRMT1, sequence (Q63009 whole entry): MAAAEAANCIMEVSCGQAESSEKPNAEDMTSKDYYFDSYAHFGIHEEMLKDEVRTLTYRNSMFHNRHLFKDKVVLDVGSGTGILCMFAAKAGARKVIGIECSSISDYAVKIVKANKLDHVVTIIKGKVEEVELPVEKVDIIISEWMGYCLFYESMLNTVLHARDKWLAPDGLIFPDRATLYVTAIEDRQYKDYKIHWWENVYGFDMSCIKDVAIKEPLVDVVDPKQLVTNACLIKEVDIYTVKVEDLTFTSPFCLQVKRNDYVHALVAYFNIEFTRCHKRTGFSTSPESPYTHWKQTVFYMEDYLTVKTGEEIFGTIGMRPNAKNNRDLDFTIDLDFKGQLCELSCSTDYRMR

In turn, `Nc1ncnc2c1ncn2[C@@H]1O[C@H](CSCC[C@H](N)C(=O)O)[C@@H](O)[C@H]1O` [SAH, S-adenosyl-L-homocysteine] had an IC50 of 300 nM.
